Source: patent publication US9156791B2, “Pyrazole compounds acting against allergic, immune and inflammatory conditions” (Glaxo Group Limited, priority 2010, dated 2015)

Legend:
[1] = In vitro microsomal clearance, human; assay type: in vitro ADME
[2] = In vitro microsomal clearance, dog; assay type: in vitro ADME; settings: Dog (Beagle)
ICRAC current = test: ICRAC assay: thapsigargin-induced calcium influx in Jurkat E6-1 cells (Fluo-4, FLIPR); assay type: cell-based; settings: Homo sapiens, thapsigargin 5 μM, calcium add-back, inhibition of maximal fluorescence signal
Protocol: This ICRAC assay uses the SERCA inhibitor thapsigargin to produce calcium depletion and activate an ICRAC current. […] Changes in intracellular calcium levels are determined by the inclusion of the calcium sensitive fluorescent dye Fluo-4 and the use of the FLIPR detection system. Inhibitors of ICRAC would be expected to decrease the calcium influx upon calcium add-back, thus reducing fluorescent signal.
Jurkat E6-1 is an established immortalised T lymphocyte cell line previously shown to express a functional ICRAC current. Jurkat cells grow in suspension, are cultured in DMEM+10% FBS, maintained in T175 flasks at 37° C./5% CO2, and are subcultured twice a week with either 1:10-1:20 splits. 1 confluent T175 yields 100 ml of approximately 2×10^6 cells/ml.
Loading buffer contains; NaCl 145 mM, KCl 2.5 mM, HEPES 10 mM, Glucose 10 mM, MgCl2 1.2 mM, made up with water, then pH adjusted to 7.4 using NaOH 1 M. Finally Fluo-4AM & brilliant black are added to give a final assay concentration of 2 μM and 250 μM respectively. […]
The required seeding density for a 384 plate is 20,000 cells per well. […] Plates are then transferred to the FLIPR which initially measures baseline fluorescence, followed by any increase in fluorescence evoked by the online addition of a 6 mM (1.2 mM FAC) calcium solution. […]

[3] = In vitro microsomal clearance, rat; assay type: in vitro ADME

SMILES	CIint [1]	CIint [2]	IC50 (ICRAC current)	CIint ([3]; Rat (CD))	CIint ([3]; Rat (Wistar Han))
O=C(Nc1cnn(Cc2c(F)cccc2C(F)(F)F)c1)c1c(F)cccc1F [Example 1, 2,6-Difluoro-N-(1-{[2-fluoro-6-(trifluoromethyl)phenyl]methyl}-1H-pyrazol-4-yl)benzamide]	0.80 mL/min g liver	0.98 mL/min g liver	3.16 µM	1.67 mL/min g liver	2.05 mL/min g liver
[2H]C([2H])(c1c(F)cccc1C(F)(F)F)n1cc(NC(=O)c2c(F)cccc2F)cn1 [Example 3, 2,6-Difluoro-N-(1-(2-fluoro-6-(trifluoromethyl)-d2-benzyl)-1H-pyrazol-4-yl)benzamide]	<0.5 mL/min g liver	0.80 mL/min g liver		0.95 mL/min g liver	1.16 mL/min g liver
